What follows are molecules tested on TTA45 (assay: CD melting, DNA stabilization). Settings: 5 µM DNA, 20 µM compound, 10 mM Tris-HCl, 50 mM KCl, pH 7.4.
Assay type: binding, human
Excerpt: Compounds Structures IC /µM m

SMILES	ΔTm (°C) TTA45 [°C]
FC(F)(F)c1ccc(Cn2cc3c(-c4ccc5c(c4)OCO5)nnc-3c3cc4c(cc32)OCO4)cc1 [BMPQ-2]	7.0
Cc1ccc(Cn2cc3c(-c4ccc5c(c4)OCO5)nnc-3c3ccccc32)cc1 [BMPQ-3]	5.1
OCCn1cc2c(-c3ccc4c(c3)OCO4)nnc-2c2cc3c(cc21)OCO3 [BMPQ-4]	4.9
COc1ccc(-c2nnc3c4cc5c(cc4n(Cc4ccccc4)cc2-3)OCCO5)cc1OC [BMPQ-5]	4.6
COc1ccc(-c2nnc3c4cc5c(cc4n(Cc4ccccc4)cc2-3)OCO5)cc1 [BMPQ-6]	3.5

What follows are molecules tested on TTA45 (DNA, G4) GGGTTAGGGTTAGGGTTAGGGTTAGGGTTAGGGTTAGGGTTAGGG (assay: CD melting). Settings: 50 mM K+; 10 mM Tris-HCl pH 7.4; 5 µM DNA, 20 µM compound.

SMILES	ΔTm [°C]
FC(F)(F)c1ccc(Cn2cc3c(-c4ccc5c(c4)OCO5)nnc-3c3cc4c(cc32)OCO4)cc1 [BMPQ-2]	7.0
COc1ccc(-c2nnc3c4cc5c(cc4n(Cc4ccccc4)cc2-3)OCO5)cc1 [BMPQ-6]	3.5

What follows are molecules tested on FAM-TTA45-TAMRA (DNA, G4) GGGTTAGGGTTAGGGTTAGGGTTAGGGTTAGGGTTAGGGTTAGGG (assay: FRET melting). Settings: 100 mM K+ (KCl) plus 10 mM potassium phosphate; pH 7.0; 20 µM compound, 0.5 µM DNA.

SMILES	ΔTm [°C]
CCOc1ccc2c(c1)c1nnc(-c3ccccc3)c-1cn2-c1ccc(Cl)cc1	0.98 ± 0.69
COc1ccc2c(c1)c1nnc(-c3ccc(F)cc3)c-1cn2Cc1ccccc1	8.38 ± 1.73
Cc1ccc2c(c1)c1nnc(-c3ccc(F)cc3)c-1cn2Cc1ccccc1	6.43 ± 0.70
Clc1ccc(-n2cc3c(-c4ccccc4)nnc-3c3ccccc32)cc1	2.54 ± 0.16
c1cc2c(cc1Cn1cc3c(-c4ccc5c(c4)OCO5)nnc-3c3cc4c(cc31)OCO4)OCO2	11.56 ± 0.36
FC(F)(F)c1ccc(Cn2cc3c(-c4ccc5c(c4)OCO5)nnc-3c3cc4c(cc32)OCO4)cc1 [BMPQ-2]	12.59 ± 0.54
Cc1ccc(Cn2cc3c(-c4ccc5c(c4)OCO5)nnc-3c3ccccc32)cc1 [BMPQ-3]	10.28 ± 0.15
OCCn1cc2c(-c3ccc4c(c3)OCO4)nnc-2c2cc3c(cc21)OCO3 [BMPQ-4]	7.92 ± 0.12
COc1ccc(-c2nnc3c4cc5c(cc4n(Cc4ccccc4)cc2-3)OCO5)cc1 [BMPQ-6]	11.68 ± 0.53
Cc1ccc(-c2nnc3c4cc5c(cc4n(Cc4ccccc4)cc2-3)OCO5)cc1C [Compound 27]	14.08 ± 2.11
COc1cccc(Cn2cc3c(-c4ccc5c(c4)OCO5)nnc-3c3cc4c(cc32)OCO4)c1 [Compound 30]	13.40 ± 1.12
COc1ccc(Cn2cc3c(-c4ccc5c(c4)OCO5)nnc-3c3cc4c(cc32)OCO4)cc1OC [Compound 31]	15.15 ± 0.23
Fc1ccc(-c2nnc3c4cc5c(cc4n(Cc4ccccc4F)cc2-3)OCCO5)cc1 [Compound 33]	10.42 ± 1.60

Each molecule was assayed on TTA (DNA, G4) GGGTTAGGGTTAGGGTTAGGG (assay: CD melting). Settings: 50 mM K+ (KCl); 10 mM Tris-HCl pH 7.4; 20 µM compound, 5 µM DNA.

SMILES	ΔTm [°C]
Cc1ccc(Cn2cc3c(-c4ccc5c(c4)OCO5)nnc-3c3ccccc32)cc1 [BMPQ-3]	1.1
OCCn1cc2c(-c3ccc4c(c3)OCO4)nnc-2c2cc3c(cc21)OCO3 [BMPQ-4]	2.3
COc1ccc(-c2nnc3c4cc5c(cc4n(Cc4ccccc4)cc2-3)OCCO5)cc1OC [BMPQ-5]	4.3

These molecules were tested on TTA45 (DNA, G4) GGGTTAGGGTTAGGGTTAGGGTTAGGGTTAGGGTTAGGGTTAGGG (assay: CD melting). Settings: 50 mM K+ (KCl); 10 mM Tris-HCl pH 7.4; 20 µM compound, 5 µM DNA.

SMILES	ΔTm [°C]
Cc1ccc(Cn2cc3c(-c4ccc5c(c4)OCO5)nnc-3c3ccccc32)cc1 [BMPQ-3]	5.1
OCCn1cc2c(-c3ccc4c(c3)OCO4)nnc-2c2cc3c(cc21)OCO3 [BMPQ-4]	4.9
COc1ccc(-c2nnc3c4cc5c(cc4n(Cc4ccccc4)cc2-3)OCCO5)cc1OC [BMPQ-5]	4.6

Each molecule was assayed on TTA45 (assay: FRET melting assay, stabilization of TTA45). Settings: 0.5 µM TTA45; 20 µM compounds; 10 mM K2HPO4/KH2PO4, 100 mM KCl, pH 7.0.
Assay type: binding, human
Method: Based on the conventional G-quadruplex ligand design ([46]), ∼400 compounds were selected from Chinese National Compound library of Peking University (PKU-CNCL). These compounds were evaluated for their ability to bind to TTA45 by Fluorescence Resonance Energy Transfer (FRET) assay (Supplementary Tables S1 and S2) ([47]). […] Compounds 21-38 were purchased to study their binding with TTA45 by FRET (Supplementary Table S3). […] page 4: Table S2. Stabilization of TTA45 as determined by FRET assays (continued). Compounds Structures ΔTm/°C Compounds Structures ΔTm/°C 23 10.3 25 14.6 […] OH 24 […] KCl, pH 7.0) was determined by FRET procedure, and Tm/°C were derived by their difference. The concentration of compounds 21-26 were 20 μM , and other compounds were 50 μM. FRET assay was carried out on the Real-Time PCR 3.2 machine (Analytik Jena, Germany). The total reaction volume was 20 μL with 0.5 μM of oligonucleotide labelled with FAM at the 3' end and TAMRA at 5' end in 10 mM K2HPO4/KH2PO4 (pH 7.0) containing 100 mM KCl. […] Then compounds with various concentrations were added into the DNA samples.

SMILES	ΔTm/°C, TTA45 stabilization by FRET (Table S3) [°C]
FC(F)(F)c1ccc(Cn2cc3c(-c4ccc5c(c4)OCO5)nnc-3c3cc4c(cc32)OCO4)cc1 [BMPQ-2]	12.59 ± 0.54
Cc1ccc(Cn2cc3c(-c4ccc5c(c4)OCO5)nnc-3c3ccccc32)cc1 [BMPQ-3]	10.28 ± 0.15
OCCn1cc2c(-c3ccc4c(c3)OCO4)nnc-2c2cc3c(cc21)OCO3 [BMPQ-4]	7.92 ± 0.12
COc1ccc(-c2nnc3c4cc5c(cc4n(Cc4ccccc4)cc2-3)OCCO5)cc1OC [BMPQ-5]	14.62 ± 0.46
COc1ccc(-c2nnc3c4cc5c(cc4n(Cc4ccccc4)cc2-3)OCO5)cc1 [BMPQ-6]	11.68 ± 0.53
Cc1ccc(-c2nnc3c4cc5c(cc4n(Cc4ccccc4)cc2-3)OCO5)cc1C [Compound 27]	14.08 ± 2.11
COc1cccc(Cn2cc3c(-c4ccc5c(c4)OCO5)nnc-3c3cc4c(cc32)OCO4)c1 [Compound 30]	13.40 ± 1.12
COc1ccc(Cn2cc3c(-c4ccc5c(c4)OCO5)nnc-3c3cc4c(cc32)OCO4)cc1OC [Compound 31]	15.15 ± 0.23
Fc1ccc(-c2nnc3c4cc5c(cc4n(Cc4ccccc4F)cc2-3)OCCO5)cc1 [Compound 33]	10.42 ± 1.60

Same assay, conditions: 0.5 µM TTA45; compounds 21-26 20 µM; 10 mM K2HPO4/KH2PO4, 100 mM KCl, pH 7.0

SMILES	ΔTm/°C, stabilization of TTA45 by FRET (Table S2) [°C]
FC(F)(F)c1ccc(Cn2cc3c(-c4ccc5c(c4)OCO5)nnc-3c3cc4c(cc32)OCO4)cc1 [BMPQ-2]	12.6
Cc1ccc(Cn2cc3c(-c4ccc5c(c4)OCO5)nnc-3c3ccccc32)cc1 [BMPQ-3]	10.3
OCCn1cc2c(-c3ccc4c(c3)OCO4)nnc-2c2cc3c(cc21)OCO3 [BMPQ-4]	7.9
COc1ccc(-c2nnc3c4cc5c(cc4n(Cc4ccccc4)cc2-3)OCCO5)cc1OC [BMPQ-5]	14.6
COc1ccc(-c2nnc3c4cc5c(cc4n(Cc4ccccc4)cc2-3)OCO5)cc1 [BMPQ-6]	11.7

What follows are molecules tested on TTA (DNA, G4) GGGTTAGGGTTAGGGTTAGGG (assay: CD melting). Settings: 50 mM K+; 10 mM Tris-HCl pH 7.4; 5 µM DNA, 20 µM compound.

SMILES	ΔTm [°C]
FC(F)(F)c1ccc(Cn2cc3c(-c4ccc5c(c4)OCO5)nnc-3c3cc4c(cc32)OCO4)cc1 [BMPQ-2]	2.3
COc1ccc(-c2nnc3c4cc5c(cc4n(Cc4ccccc4)cc2-3)OCO5)cc1 [BMPQ-6]	1.0

These molecules were tested on TTA (assay: not given). Settings: CD melting; 5 µM DNA, 20 µM compound; 10 mM Tris-HCl, 50 mM KCl, pH 7.4.

SMILES	ΔTm (°C) TTA [°C]
FC(F)(F)c1ccc(Cn2cc3c(-c4ccc5c(c4)OCO5)nnc-3c3cc4c(cc32)OCO4)cc1 [BMPQ-2]	2.3
Cc1ccc(Cn2cc3c(-c4ccc5c(c4)OCO5)nnc-3c3ccccc32)cc1 [BMPQ-3]	1.1
OCCn1cc2c(-c3ccc4c(c3)OCO4)nnc-2c2cc3c(cc21)OCO3 [BMPQ-4]	2.3
COc1ccc(-c2nnc3c4cc5c(cc4n(Cc4ccccc4)cc2-3)OCCO5)cc1OC [BMPQ-5]	4.3
COc1ccc(-c2nnc3c4cc5c(cc4n(Cc4ccccc4)cc2-3)OCO5)cc1 [BMPQ-6]	1.0

The molecules below were run on FAM-TTA45-TAMRA (DNA, G4) GGGTTAGGGTTAGGGTTAGGGTTAGGGTTAGGGTTAGGGTTAGGG (assay: FRET melting). Settings: 100 mM K+ (KCl) plus potassium phosphate; 10 mM K2HPO4/KH2PO4 pH 7.0; 0.5 µM DNA, 20 µM compound.

SMILES	ΔTm [°C]
COc1ccc(-c2nnc3c4cc5c(cc4n(Cc4ccccc4)cc2-3)OCCO5)cc1OC [BMPQ-5]	14.62 ± 0.46

What follows are molecules tested on A549 (assay: Cell cytotoxicity assay (CCK8)). Settings: CCK8, 48 h treatment.
Assay type: cell-based, human
Method: The cell growth effect of BMPQ-1 against different cell lines were tested via measuring the quantity of living cells using the Cell Counting Kit-8 (CCK8) (DOJINDO, Japan) according to the instruction. Cells were seeded in a 96-well plate (5 × 10^3 cells/well) and grown for 24 h for attachment. Then the cells were treated with various concentrations of BMPQ-1 and incubated at 37°C with 5% CO2 for 48 h. After incubation, the old medium was discarded followed by adding fresh medium containing 10% FBS in DMEM. Then 100 μl CCK-8 (10% in grow medium) was added into each well, and the cells were further incubated for 1 h. The optical density (OD) was detected at 450 nm by an automated microplate reader (Bio-Rad). The IC50 values were derived from the curves of the mean percentage of survival against the drug concentration. All the experiments were performed in triplicate.
A Cell Counting Kit-8 (CCK8) (DOJINDO, Japan) was employed to evaluate the cytotoxicity of BMPQ-1 on human alveolar basal epithelial cancer cell line (A549), human hepatocellular carcinoma cancer cell line (HepG2), human gastric cancer cell line (MGC-803), human colon adenocarcinoma (HT29), human normal liver Cells (HL-7702).

SMILES	IC50 [µM]
FC(F)(F)c1ccc(Cn2cc3c(-c4ccc5c(c4)OCO5)nnc-3c3cc4c(cc32)OCO4)cc1 [BMPQ-2]	1.99 ± 0.04
Cc1ccc(Cn2cc3c(-c4ccc5c(c4)OCO5)nnc-3c3ccccc32)cc1 [BMPQ-3]	> 32
OCCn1cc2c(-c3ccc4c(c3)OCO4)nnc-2c2cc3c(cc21)OCO3 [BMPQ-4]	> 32
COc1ccc(-c2nnc3c4cc5c(cc4n(Cc4ccccc4)cc2-3)OCCO5)cc1OC [BMPQ-5]	5.39 ± 0.46
COc1ccc(-c2nnc3c4cc5c(cc4n(Cc4ccccc4)cc2-3)OCO5)cc1 [BMPQ-6]	2.49 ± 0.03

Reference: publication PMC7672424 (Nucleic Acids Research, 2020)
